We go through one compound from patent US20190022225A1, “PROTOCOL FOR INCREASING LIFE EXPECTANCY IN A TEST SUBJECT” (Mayo Foundation for Medical Education and Research, priority 2015, published 2019).

Holding throughout (format): in vivo, mouse
The test system of assay [1] is 3MR or INK-ATTAC mice exposed to cigarette smoke. Kind of assay: Cigarette smoke exposure model (COPD), oxygen saturation. The settings on record: after 2 months of cigarette smoke exposure. Here is the method: Six week-old 3MR (n=35) or INK-ATTAC (n=35) mice were chronically exposed to cigarette smoke generated from a Teague TE-10 system, an automatically-controlled cigarette smoking machine that produces a combination of side-stream and mainstream cigarette smoke in a chamber, which is transported to a collecting and mixing chamber where varying amounts of air is mixed with the smoke mixture. […] Mice received a total of 6 hours of cigarette smoke exposure per day, 5 days a week for 6 months. Each lighted cigarette (3R4F research cigarettes containing 10.9 mg of total particulate matter (TPM), 9.4 mg of tar, and 0.726 mg of nicotine, and 11.9 mg carbon monoxide per cigarette [University of Kentucky, Lexington, Ky.]) was puffed for 2 seconds and once every minute for a total of 8 puffs, with the flow rate of 1.05 L/min, to provide a standard puff of 35 cm^3. The smoke machine was adjusted to produce a mixture of side stream smoke (89%) and mainstream smoke (11%) by smoldering 2 cigarettes at one time. The smoke chamber atmosphere was monitored for total suspended particulates (80-120 mg/m^3) and carbon monoxide (350 ppm). Beginning at day 7, (10) INK-ATTAC and (10) 3MR mice were treated with AP20187 (3×per week) or gancyclovir (5 consecutive days of treatment followed by 16 days off drug, repeated until the end of the experiment), respectively. An equal number of mice received the corresponding vehicle. The remaining 30 mice (15 INK-ATTAC and 15 3MR) were evenly split with 5 of each genetically modified strain placed into three different treatment groups. One group (n=10) received Nutlin-3A (25 mg/kg dissolved in 10% DMSO/3% Tween-20 in PBS, treated 14 days consecutively followed by 14 days off drug, repeated until the end of the experiment). One group (n=10) received ABT-263 (Navitoclax) (100 mg/kg dissolved in 15% DMSO/5% Tween-20, treated 7 days consecutively followed by 14 days off drug, repeated until the end of the experiment), and the last group (n=10) received only the vehicle used for ABT-263 (15% DMSO/5% Tween-20), following the same treatment regimen as ABT-263.
After two months of cigarette smoke exposure, lung function was assessed by monitoring oxygen saturation using the MouseSTAT PhysioSuite pulse oximeter (Kent Scientific). Animals were anesthetized with isoflurane (1.5%) and the toe clip was applied. Mice were monitored for 30 seconds and the average peripheral capillary oxygen saturation (SpO2) measurement over this duration was calculated.

Assay [2] concerns INKattac mice. Kind of assay: Micro CT estimate of intervertebral disc space (IVS) in aged mice. As to the method:
(§1) This example describes a method for assessing the effect of senotlytic agents or killing of senescent cells on bone structure. Two groups of INKattac mice are used for this method: mice treated from 12-28 months of age with vehicle (“old” controls) and mice treated from 12-28 months of age with AP20187. All mice used in this example were male. After sacrifice the cadavers were fixed in 10% neutral buffered formalin, and stored at 4° C.
Intervertebral discs are type of cartilage filling the space between vertebras of the spine. They are known to decrease in function and volume with age. We estimated the intervertebral volumes between specific vertebra in spines of aged mice, with and without senolytic treatment, to determine if intervertebral disc space was maintained in aged animals through senolysis.
While IVDs cannot be directly visualized with the micro-CT method of example 43, an image segmentation protocol was developed to infer disc volume by determining the volume between lumbar vertebra L6 and L5, L5 and L4, and L4 and L3 to estimate the intervertebral disc space (IVS) (FIG. 94).

For assay [3], the system named is INKattac mice. Kind of assay: Micro CT of femoral cortical bone in INKattac mice treated from 12-28 months. Here is the method: as §1
Mice were cleaned of excess tissue, and placed in a Bruker 1176 “Skyscanner” for micro computerized tomographic (mCT) scanning. A variety of settings were explored to visualize whole skeletons, the following settings were used in this example: 65 Kv, 385 μA, 17.58 μm, 0.5 mm Al filter, rotation step 0.5, frame averaging 6, smoothing 2, smoothing kernel 2, ring artifact correction 4, and beam hardening correction 30%. Typical acquisition consisted of a whole body scan, followed by additional scans if necessary for further data exploration.
Reconstruction of the raw data was carried out. Subvoluming of anatomical features of interest was then further performed on the whole skeleton, using DataViewer, or CtAn software (Bruker). […]
The average thickness of each 2 mm subvolume was measured in treated versus non-treated animals. […]

In assay [4] the test system is aging mice. In words: Late life muscle strength and condition (grip strength, treadmill, muscle weight, fiber area). Here is the method: Grip strength was measured in untreated 12 month old mice, and in mice treated with either vehicle or AP20187 at 18 and 28 months of age.
Muscle strength was also assessed by determining exercise duration and distance on a treadmill.
As an additional measure of muscle condition gastrocnemius and tibialis anterior muscles, shown in FIG. 99, where dissected from senolysis treated and untreated 28 month old mice and weighed. As shown in FIGS. 100 and 101 the gastrocnemius and tibialis anterior muscles are heavier in treated mice than in untreated mice, muscle weights from untreated 18 month old mice are included to show the age related decline. Muscle fiber area of the gastrocnemius and tibialis anterior muscles was also used to assess muscle condition.

Assay [5] has as its system INK-ATTAC transgenic mice. Kind of assay: Cardiac stress test (lethal isoproterenol) in INK-ATTAC mice treated with AP20187. Here is the method:
To study the impact of senescent cell clearance on health and lifespan, cohorts of INK-ATTAC transgenic mice on FVB×129Sv/E×C57BL/6 mixed or C57BL/6 pure genetic backgrounds were established. At 12 months age, one half of each cohort was injected three times/week with AP20187 to induce apoptosis of p16-positive senescent cells (0.2 mg/kg and 2 mg/kg AP20187 for the mixed and the pure C57BL/6 cohorts, respectively), while the other half of each cohort received vehicle. At 18 months, subsets of male and female mice from each cohort were subjected to a cardiac stress test, in which mice were injected with a lethal dose of isoproterenol (680 mg/kg) and the time to cardiac arrest was recorded.
Cardio-protective signaling pathways are known to provide tolerance to metabolic stresses such as ischemia and hypoxia decline (Granfeldt et al., 2009, Cardiovasc. Res. 83:234-246). […] ATP-dependent K channels (KATP) play a central role in cardio-protective signaling (Gross and Auchampach, 1992, Cardiovasc. Res. 26:1011-1016).). These KATP channels are composed of the pore-forming subunit Kir6.2/Kir6.1, the regulatory subunit Sur2a, and additional accessory proteins. […]

Entries after “also recorded” stand apart in the source; their conditions may differ.

Turning to `CC[C@H](C(=O)N1CCCC[C@H]1C(=O)O[C@H](CCc1ccc(OC)c(OC)c1)c1cccc(OCC(=O)NCC(CNC(=O)COc2cccc([C@@H](CCc3ccc(OC)c(OC)c3)OC(=O)[C@@H]3CCCCN3C(=O)[C@@H](CC)c3cc(OC)c(OC)c(OC)c3)c2)CN(C)C)c1)c1cc(OC)c(OC)c(OC)c1` [AP20187], the “SpO2 levels versus untreated controls” value in assay [1] is on record as “statistically significant increases”. Besides, in assay [2] (L6-L5, L5-L4, L4-L3, versus vehicle), the “improvement of intervertebral disc space (IVS)” value is on record as 25-33%. For the same compound, in assay [2] (three sites in the spine), the “IVS versus vehicle treated controls, significance” value was “statistically significantly greater”. The “cortical thickness of femoral bone” value in assay [3] (aged mice, versus controls) is recorded as “increased”. The “retention of cortical bone volume (BV/TV) with age” value in assay [3] (male mice treated from 12-28 months, 2 mm subvolume of femur mid-diaphysis) was determined as 6.1%. In assay [4] (28 month old mice), the “gastrocnemius and tibialis anterior muscle weight” value is on record as “decreased muscle loss with age”. Further, in assay [4] (28 months, versus vehicle), the “exercise distance on treadmill” value was “increased exercise distance; also recorded: greater distances”, the “exercise duration on treadmill” value was “increased duration of exercise; also recorded: exercised for longer” and the grip strength result was “increased grip strength; also recorded: decreased loss of muscle strength”. For the same compound, the “time to cardiac arrest after lethal isoproterenol (cardio-protection)” value in assay [5] (0.2 or 2 mg/kg three times/week from 12 to 18 months) is listed as “sustained youthful cardio-protection against isoproterenol”. Further, the “Sur2a expression in heart” value in assay [5] (18-month-old female mice) was “sustained Sur2a expression”.
